In brackets after ≈: the same amount, converted by molar mass. Read-outs that look alike come from different tables or passages of the source.
Key:
[1] = Solubility of BPR0C261 in different carriers or mixed carriers; type: physicochemical; conditions: room temperature
Method: The solubility of BPR0C261 in different drug carriers or mixed carriers was evaluated. The solubility is defined as the maximum amount of a compound dissolved in a carrier or mixed carrier at room temperature.

[2] = Oral bioavailability of BPR0C261 (po vs IV PK profiles, plasma by HPLC-Tandem Mass spectrometry); type: in vivo; conditions: mouse, 2 mg/kg, po by gavage, read-out: Oral bioavailability (F %)
Method: The oral bioavailability of BPR0C261 was assessed by comparing the pharmacokinetic (“PK”) profiles obtained from orally administered (“po”) BPR0C261 in various oral formulation described herein with the PK profile obtained from intravenously administered (“IV”) BPR0C261.
An intravenous formulation of BPR0C261 (carriers: 5% DMSO, 25% Cremophor EL, and 70% water, v/v/v) was administered intravenously by a bolus injection to a group of three mice each via the tail vein, in a single dose of 2 mg/Kg body weight. A blood sample (0.15 mL) was drawn at different points (pre-dose, 2 min, 5 min, 15 min, 30 min. 1 hr, 2 hr, 4 hr, 6 hr, 8 hr, and 24 hr after dosing) from each animal via the cardiac puncture and stored in ice (0-5° C.). […]
Plasma was separated from the blood sample by centrifugation at 15,000 g for 15 min at 4° C. […] All plasma samples were analyzed for the BPR0C261 concentrations by HPLC-Tandem Mass spectrometry.
BPR0C261 plasma concentration data were used to obtain the PK profile for the IV or po administration, i.e., a plasma-concentration vs. time curve. The area under the curve (“AUC”) was then calculated. Oral bioavailability (F %) was determined by comparing the dose-normalized area under the curve for the oral formulation (“AUCpo/dosepo”) with that for the intravenous formulation (“AUCIV/doseIV”), i.e., F %=[AUCpo/dosepo]/[AUCIV/doseIV].

Cc1cc(Cn2cc(C(=O)C(=O)Nc3cc(C)ns3)c3ccccc32)on1 [BPR0C261, N-(3-methylisothiazol-5-yl)-2-[1-(3-methylisoxazol-5-ylmethyl)-1H-indol-3-yl]-2-oxoacetamide]
solubility ([1]; aqueous with cosolvent or surfactant or cyclodextrin, carrier 3: DMSO (20%), Tween 80 (10%), and DDW (70%)): < 5000 µg/mL
solubility ([1]; aqueous with cosolvent or surfactant or cyclodextrin, carrier 13: DMSO (5%), Cremophor EL (25%), and DDW (70%)): < 5000 µg/mL
solubility ([1]; aqueous with cosolvent or surfactant or cyclodextrin, carrier 14: Methylcellulose (1%), Tween 80 (2%), PEG 400 (10%), and DDW (87%)): < 1000 µg/mL
solubility ([1]; carrier 1: Double distilled water (DDW)): ~0.12 µg/mL (≈ 0.000315 mM)
solubility ([1]; organic solvent or mixture, carrier 2: DMSO): ~5000 µg/mL (≈ 13.1 mM)
solubility ([1]; organic solvent or mixture, carrier 4: Ethanol (3%), Glycerol (2%), PEG 400 (70%), PG (20%), and Transcutol (5%)): 10000 to 30000 µg/mL (≈ 26.3 to 78.9 mM)
solubility ([1]; organic solvent or mixture, carrier 5: Glycerol (5%) and PEG 400 (95%)): 10000 to 30000 µg/mL (≈ 26.3 to 78.9 mM)
solubility ([1]; organic solvent or mixture, carrier 6: TPGS (20%) and PEG 400 (80%)): 10000 to 30000 µg/mL (≈ 26.3 to 78.9 mM)
solubility ([1]; organic solvent or mixture, carrier 7: Transcutol (10%) and PEG 400 (90%)): 10000 to 30000 µg/mL (≈ 26.3 to 78.9 mM)
solubility ([1]; organic solvent or mixture, carrier 8: DMSO (10%), PEG 400 (80%), and propylene glycol (10%)): 10000 to 30000 µg/mL (≈ 26.3 to 78.9 mM)
solubility ([1]; organic solvent or mixture, carrier 9: Transcutol (10%), Cremophor EL (20%), and PEG 400 (70%)): 10000 to 30000 µg/mL (≈ 26.3 to 78.9 mM)
solubility ([1]; organic solvent or mixture, carrier 10: TPGS (20%), Transcutol (20%), and PEG 400 (60%)): ~50000 µg/mL (≈ 131 mM)
solubility ([1]; organic solvent or mixture, carrier 11: TPGS (40%), Transcutol (20%), and PEG 400 (40%)): ~50000 µg/mL (≈ 131 mM)
solubility ([1]; organic solvent or mixture, carrier 12: TPGS (75%) and Transcutol (25%)): ~50000 µg/mL (≈ 131 mM)
bioavailability ([2]; formulation containing 5% DMSO, 25% Cremophor EL, and 70% water (v/v/v), vs IV 2 mg/Kg): 18%
bioavailability ([2]; formulations containing TPGS, Transcutol, and optionally PEG 400, vs IV 2 mg/Kg): 25 to 80%
